Consider 1 compound from US20190070170A1, “METHOD OF S[…]-1” (Macau University of Science and Technology, priority 2017, published 2019).

Holding throughout (type): cell-based
For one assay, the system named is COX-1. Briefly: COX-1 protein expression in IL-1β-stimulated A549 cells (western blotting). The conditions noted are these: IL-1β with SIN or DEX for 48 h. As for the experimental part: RAW264.7 and A549 cell lines were obtained from American Type Culture Collection (ATCC, Manassas, Va., USA) and maintained in DMEM (RAW264.7) or 1640 (A549) medium containing 10% FBS (Gibco-BRL, Grand Island, N.Y., USA) and antibiotics at 37° C. in a humidified atmosphere containing 5% CO2. RAW264.7 cells were plated in 6-well plates at a density of 4×10^5 cells and incubated for 24 h, then the cells were pretreated with different concentrations of SIN for 1 h before stimulating with LPS (100 ng/ml). A549 cells were seeded in 6-well plates at a density of 1×10^5 cells and incubated for 24 h, followed by pretreatment with SIN. A549 cells were then stimulated by IL-1β (1 ng/ml).
Whole-cell and nuclear proteins were obtained using RIPA lysis buffer (CST, Boston, Mass., USA) and Nuclear and Cytoplasmic Extraction Reagents kit from Thermo Scientific (Asheville, N.C., USA), respectively. For immunoblotting, proteins from whole-cell, cytoplasm, nuclear, and microsomal fractions were separated on SDS-PAGE, then transferred onto a nitrocellulose membrane from GE Healthcare Life Sciences (Buckinghamshire, UK), and incubated with 5% skimmed milk at room temperature for 1 h. […] The levels of protein expression were measured using Odyssey v3.0 software from Li-COR (Lincoln, Nebr., USA).

Another assay relates to COX-2. Briefly: COX-2 mRNA level in LPS-activated rat peritoneal macrophages (qRT-PCR). The conditions noted are these: SIN 1 h, LPS 12 h. As for the experimental part:
Peritoneal macrophages were cultured in 6-well plates and pre-treated with the indicated concentration of SIN for 1 h, followed by LPS stimulation for another 12 h. RNA was isolated from rat peritoneal macrophages using the Nucleospin RNA kit from Macherey-Nagel (Duren, Germany) according to the manufacturer's instructions. RNA concentration derived from each sample was assessed by NanoDrop UV Spectrophotometer from Thermo Scientific (Asheville, N.C., USA). RNA (1 μg) was reverse transcripted using the transcriptor universal cDNA master reagents from Roche Applied Science (Mannheim, Germany). Gene expression quantification was performed by a high-productivity real-time quantitative PCR ViiA™ 7 machine using SYBR Green reagents from Roche Applied Science (Mannheim, Germany) according a standard protocol recommended by the manufacturer and the cycling parameters were as followed: uracil removal incubation (50° C., 2 min), polymerase activation (95° C., 10 min), 40 cycles of denaturation (95° C., 15 s) and annealing/extension (60° C., 30 s) and a melt curve stage (95° C., 15 s, 60° C., 1 min and 95° C., 15 s).
Rat primers used in the research are listed as follows:
• The levels of gene expression were quantitated using the 2(−Delta Delta C(T)) method. […]
For orientation: In qPCR the cycle at which signal appears reflects the starting amount.

The target of a further assay is T1, NF-κB (mPGES-1 promoter) (Rattus norvegicus, UniProt Q7TQN4).
T1 construct: Peritoneal macrophages of SD rats were isolated; endogenous in cells; host or cells: primary peritoneal macrophages of SD rats
Briefly: ChIP assay: NF-κB DNA binding to mPGES-1 promoter in LPS-stimulated rat peritoneal macrophages. The conditions noted are these: 640 μM SIN 1 h, 1 μg/ml LPS 30 min. Here is the method:
Rat peritoneal macrophages were pretreated with 640 μM SIN (1 h) and stimulated with 1 μg/ml LPS (30 min) before fixation at room temperature for 10 min with 1% formaldehyde. Fixation was terminated by adding glycine (to 0.125 M) with an additional incubation of 5 min, then the cells were washed twice with ice-cold PBS and harvested by scraping and centrifugation (1500 rpm for 10 min at 4° C.). Cell lysis was performed using ChIP kit from abcam (Cambridge, UK) according to the manufacturer's instructions. Briefly, cell pellets were resuspended in 1 ml Buffer B by pipetting up and down several times in a microcentrifuge tube and incubated at room temperature for 10 min. After centrifugation at 5000 rpm, the pellet was collected and resuspended in ice cold Buffer C and incubated on ice for 10 min, followed by centrifugation (5,000 rpm for 10 min at 4° C.). The pellet was mixed with 100 μl Buffer D containing protease inhibitors, incubated on ice for 10 min and sonicated for 30 cycles in a Bioruptor UCD-300 sonicator (power on high, 30 s on, 30 s off per cycle), yielding DNA fragments of 150-200 bps (the size of sonicated chromatin was checked through running 2% agarose gel). Beads were blocked overnight in PBS with 0.5% BSA and then added to the samples. […]

T1 sequence (Q7TQN4 whole entry): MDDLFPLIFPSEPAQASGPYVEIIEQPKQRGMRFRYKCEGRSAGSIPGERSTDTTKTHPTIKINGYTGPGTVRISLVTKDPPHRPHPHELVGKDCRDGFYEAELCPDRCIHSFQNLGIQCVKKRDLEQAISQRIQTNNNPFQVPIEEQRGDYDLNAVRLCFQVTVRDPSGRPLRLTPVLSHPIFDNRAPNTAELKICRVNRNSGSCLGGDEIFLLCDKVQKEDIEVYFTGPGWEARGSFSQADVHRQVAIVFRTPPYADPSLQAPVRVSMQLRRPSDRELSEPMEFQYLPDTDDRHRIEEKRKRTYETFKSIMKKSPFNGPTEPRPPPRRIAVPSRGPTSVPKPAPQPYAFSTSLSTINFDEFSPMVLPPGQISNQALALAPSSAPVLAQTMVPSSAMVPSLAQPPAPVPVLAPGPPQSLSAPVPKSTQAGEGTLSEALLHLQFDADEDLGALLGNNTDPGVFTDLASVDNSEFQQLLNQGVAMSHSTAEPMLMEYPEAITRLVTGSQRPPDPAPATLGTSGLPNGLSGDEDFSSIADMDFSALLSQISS

Consider `COC1=C[C@@H]2[C@@H]3Cc4ccc(OC)c(O)c4[C@]2(CCN3C)CC1=O` [SIN, sinomenine], for which the COX-1 protein expression result with COX-1 was “did not suppress”. Also, the “gene level of COX-2 (mRNA)” value in the assay with COX-2 is recorded as “did not suppress”. In addition, the “DNA binding of NF-κB to the promoter of mPGES-1” value on NF-κB (mPGES-1 promoter) was “selectively inhibited”.
